Data reported in ChEMBL document CHEMBL1151339, “Antitumor agents from bohemic acid complex, III. The isolation of marcellomycin, musettamycin, rudolphomycin, mimimycin, collinemycin, alcindoromycin, and bohemamine” (J Nat Prod, 1980).
Values after ≈ are worked out from the molar mass of the structure shown.

Assays:
L1210 = experiment: Antitumor activity against mouse L1210 cells xenografted in BDF1 mouse assessed as median survival time at 0.4 mg/kg, ip; assay type: functional; settings: route intraperitoneal
B16 [1] = experiment: Antitumor activity against mouse B16 cells xenografted in BDF1 mouse assessed as median survival time at 0.4 mg/kg; assay type: functional
Candida albicans = experiment: Antifungal activity against Candida albicans A-9540 by 2-fold tube dilution method; assay type: functional
B16 [2] = experiment: Antitumor activity against mouse B16 cells xenografted in BDF1 mouse assessed as median survival time at 3.2 mg/kg; assay type: functional
B16 [3] = experiment: Antitumor activity against mouse B16 cells xenografted in BDF1 mouse assessed as change in tumor average weight at 0.2 mg/kg; assay type: functional
Enterococcus faecalis = experiment: Antibacterial activity against Streptococcus faecalis A20688 by 2-fold tube dilution method; assay type: functional
B16 [4] = experiment: Antitumor activity against mouse B16 cells xenografted in BDF1 mouse assessed as change in tumor average weight at 0.025 mg/kg; assay type: functional
B16 [5] = experiment: Antitumor activity against mouse B16 cells xenografted in BDF1 mouse at 0.05 mg/kg relative to control; assay type: functional
B16 [6] = experiment: Antitumor activity against mouse B16 cells xenografted in BDF1 mouse assessed as median survival time at 0.2 mg/kg; assay type: functional
B16 [7] = experiment: Antitumor activity against mouse B16 cells xenografted in BDF1 mouse assessed as change in tumor average weight at 0.1 mg/kg; assay type: functional
Mus musculus [8] = experiment: Toxicity in BDF1 mouse xenografted with mouse L1210 cells assessed as survival at 12.8 mg/kg, ip after 5 days; assay type: organism-based; set-up: dose 12.8 mg/kg, route intraperitoneal; settings: in vivo, 120 h
Mus musculus [9] = experiment: Toxicity in BDF1 mouse xenografted with mouse B16 cells assessed as survival at 1.6 mg/kg after 5 days; assay type: organism-based; set-up: dose 1.6 mg/kg
[10] = test system: Trichophyton mentagrophytes; experiment: Antifungal activity against Trichophyton mentagrophytes A-9870 by 2-fold tube dilution method; assay type: functional
B16 [11] = experiment: Antitumor activity against mouse B16 cells xenografted in BDF1 mouse assessed as median survival time at 0.1 mg/kg; assay type: functional
Streptococcus pneumoniae = experiment: Antibacterial activity against Streptococcus pneumoniae A-9585 by 2-fold tube dilution method; assay type: functional

Q: What does the source list for `CC[C@@]1(O)C[C@H](O[C@H]2C[C@H](N(C)C)[C@H](O[C@H]3C[C@H](O)[C@H](O[C@@H]4O[C@@H](C)C(=O)C=C4N)[C@@H](C)O3)[C@@H](C)O2)c2c(cc3c(c2O)C(=O)c2c(O)ccc(O)c2C3=O)[C@H]1C(=O)OC` [RUDOLPHOMYCIN]?
A: Activity (L1210): 8 days; Activity (B16 [1]): 26.5 days; MIC (Candida albicans): > 16 µg/mL; Activity (B16 [2]): 23 days; Activity (B16 [3]): -1 g; MIC (Enterococcus faecalis): 1 µg/mL (≈ 1.19 µM); Activity (B16 [4]): -0.9 g; T/C (B16 [5]): 110%; Activity (B16 [6]): 26 days; Activity (B16 [7]): -0.4 g; Activity (Mus musculus [8]): Toxic; AC50 (Mus musculus [9]): Non-toxic; MIC [10]: > 16 µg/mL; Activity (B16 [11]): 27.5 days; MIC (Streptococcus pneumoniae): 0.06 µg/mL (≈ 0.0714 µM)
